According to patent US4354033A, “Anthranilic acid esters” (Council of Scientific & Industrial Research, priority 1981, dated 1982):

Assays:
[1] = LD50 i.p. in mice; details: mouse, in vivo, ip
[2] = tested on: formaldehyde induced arthritis; test: Formaldehyde arthritis; format: in vivo; details: 100 mg/kg orally daily for 10 days
[3] = tested on: cotton pellet granuloma; test: Cotton pellet granuloma; format: in vivo; details: 100 mg/kg orally daily for 7 days
[4] = Anti-inflammatory activity in a battery of tests (summary statement); format: in vivo
[5] = tested on: capillary permeability; details: at 100 mg
[6] = Ulcerogenic properties; format: in vivo; details: 100 mg/kg daily orally for 7 days
[7] = tested on: carrageenin oedema; test: Antiinflammatory action (rats), carrageenin oedema; format: in vivo; details: for inhibition of carrageenin oedema: 200 mg/kg (p.o.); for inhibition (carrageenin): rats, 100 mg/kg p.o.
Protocol: Antiinflammatory action (Rats): Dose: 100 mg/kg p.o.
(ii) It produces 30% inhibition when given 1/2 hour before the injection of carrageenin.
Effect on carrageenin oedema at 200 mg/kg (p.o.)
(i) 60% inhibition when given 1 hour before the injection of carrageenin.
(iii) 62% of inhibition when given 1/2 hour after the injection of carrageenin.
Antiinflammatory action (Rats)
Effect on carrageenin oedema at 200 mg/kg

[8] = 1/2 hour after injection of carrageenin
[9] = 1/2 hour before injection of carrageenin

SMILES: O=C(COC(=O)c1ccccc1NCCc1ccccc1)c1ccccc1 [2-N-β-phenethyl phenacyl anthranilate, 2-N-β-phenethyl-phenacyl anthranilate]
- LD50 [1]: > 800 mg/kg
- inhibition of formaldehyde induced arthritis [2]: 14%
- inhibition of cotton pellet granuloma [3]: 31%
- anti-inflammatory activity [4]: potent anti-inflammatory activity
- inhibition (mouse capillary permeability) [5]: 52%
- ulcerogenic activity [6]: does not show any ulcerogenic activity
- inhibition of carrageenin oedema [7, 8]: 62%
- inhibition of carrageenin oedema [7, 9]: 43%
- inhibition of carrageenin oedema ([7]; 1 hour before injection of carrageenin): 60%
- inhibition (carrageenin) [7, 8]: 43%
- inhibition (carrageenin) [7, 9]: 30%
- inhibition (carrageenin) ([7]; one hour before injection of carrageenin): 44.5%
